Results as given in patent publication US9303057B2, “Methods and reagents for analyzing riboswitches using FRET” (CORNELL UNIVERSITY, priority 2011, dated 2016).

Tests used:
[1] = test system: SAM-II riboswitch; experiment: Bulk FRET detection of pseudoknot formation (steady-state fluorescence of Cy3/Cy5-labeled riboswitch); format: binding, Sargasso Sea metagenome
Method: FIG. 2 illustrates the construction of a Cy3/Cy5-labeled SAM-II construct sensitive to pseudoknot formation. (a) The strategy for synthesis, labeling and enzymatic ligation is shown, with the chemical structures of fluorophores and linkers provided in FIG. 3. (b) Anion-exchange (AE) HPLC trace of enzymatic ligation using T4 DNA ligase and a DNA splint at the start (0 h) and after completion (9 h). The product (retention time=37.3 min) was purified by AE-HPLC. (c) LC-ESI mass spectrum of purified ligation product. (d) Fluorescence emission response of the acceptor dye in the Cy5/Cy3 labeled SAM-II construct upon consecutive Mg^2+ and SAM addition under conditions where cRNA=0.5 μM, cSAM=5.0 μM, cmg=2.0 mM, 50 mM KMOPS, 100 mM KCl, 20° C., pH 7.5; λex=540 nm, λem=665 nm.
All experiments were measured on a Cary Eclipse spectrometer (Varian, Palo Alto, USA) equipped with a peltier block, a magnetic stirring device, and a RX2000 stopped-flow apparatus (Applied Photophysics Ltd., Leatherhead, UK).
Based on the reported structure of the SAM-II riboswitch (Gilbert 2008), an acceptor (Cy5) fluorophore was attached to the non-conserved nucleoside at position 14, and a donor (Cy3) fluorophore at the unpaired terminal residue at position 52 (FIG. 1a). […]

[2] = test system: SAM-II riboswitch; experiment: smFRET imaging of pseudoknot formation of surface-immobilized Cy3/Cy5-labeled riboswitch; format: binding, Sargasso Sea metagenome
Method: To reveal the underlying dynamics of SAM-II pseudoknot formation, single-molecule FRET (smFRET) (Aleman 2008; Lemay 2006; Brenner 2010) investigations were performed using the same labeling strategy as in Example 2 (i.e., A14^Cy3U and G52^Cy5U). To enable surface immobilization of the SAM-II riboswitch within a passivated microfluidic device and extended observation periods, a 5′-biotin moiety was included in the design (FIG. 2, FIG. 3).
smFRET data were acquired using a prism-based total internal reflection (TIR) microscope, where the biotinylated SAM-II riboswitch was surface immobilized within PEG-passivated, strepatividin-coated quartz microfluidic devices (Munro 2007). The Cy3 fluorophore was directly illuminated under 1.5 kW/cm^2 intensity at 532 nm (Laser Quantum). Photons emitted from both Cy3 and Cy5 were collected using a 1.2 NA 60× Plan-APO water-immersion objective (Nikon), where optical treatments were used to spatially separate Cy3 and Cy5 frequencies onto two, synchronized EMCCD devices (Evolve 512, Photometrics). Fluorescence data were acquired using MetaMorph acquisition software (Universal Imaging Corporation) at a rate of 66.7 frames per second (15 ms integration). Fluorescence trajectories were selected from the movie files for analysis using automated image analysis software coded in Matlab (The MathWorks). Fluorescence trajectories were selected based on the following criteria: a single catastrophic photobleaching event, at least 6:1 signal-to-background noise ratio (SNR) calculated from the total fluorescence intensity, and a FRET lifetime of at least 30 frames (450 ms) in any FRET state ≧0.15. smFRET trajectories were calculated from the acquired fluorescence data using the formula FRET=ICy5/(ICy3+ICy5), where ICy3 and ICy5 represent the Cy3 and Cy5 fluorescence intensities, respectively. Equilibrium smFRET experiments were performed in 50 mM KMOPS, 100 mM KCl, pH 7.5 buffer in the presence of an optimized oxygen scavenging and triplet state quenching cocktail in the presence of an oxygen scavenging environment (1 unit protocatchuate-3,4-dioxygenase, 2 mM protocatechuic acid; 1 mM Trolox, 1 mM cyclooctatetraene, 1 mM nitrobenzyl-alcohol) (Dave 2009). Concentrations of MgCl2 and SAM were as specified in the figure captions. […]
As previously described, the emission intensities of both Cy3 and Cy5 fluorophores were tracked simultaneously for individual surface-immobilized molecules using a wide-field, prism-based total internal reflection configuration, with a single-frequency light source (532 nm) (Munro 2007). […] The dynamic behaviors of individual molecules were assessed using hidden Markov modeling (HMM) procedures, and ensemble information was obtained by assembling single-molecule FRET trajectories into population FRET histograms. […]

## C[S+](CC[C@H](N)C(=O)O)C[C@H]1O[C@@H](n2cnc3c(N)ncnc32)[C@H](O)[C@@H]1O (stereo partly drawn) [SAM, S-adenosylmethionine]
[1]; 6 equivalents of SAM, Cy3/Cy5-labeled riboswitch, cRNA=0.5 μM, 2.0 mM Mg2+, 20° C., pH 7.5
  observed rate of increase of acceptor fluorescence emission (single exponential): 1.19±0.06×10^−2 s^−1
[1]; addition of 10 equivalents of SAM
  fluorescence emission from the acceptor fluorophore achieved via FRET: dramatically increase in intensity
[2]; 2 mM Mg2+ and 10 μM SAM
  average dwell time in the high-FRET state: approximately one
  stabilization of the high-FRET state: ~10 fold

## [Cl-].[Cl-].[Mg+2] [Mg^2+]
[2]; 2 mM Mg2+, no SAM
  increase of the absolute value of the low-FRET state: 0.08
  stabilization of the high-FRET state: approximately 10 fold
